Laboratory results published in US20090124675A1, “INHIBITORS OF ANTI-APOPTOTIC PROTEINS” (Burnham Institute for Medical Research, priority 2007, published 2009).
“Also recorded” adds a separate entry of the source.

Tests used:
BCL-XL [1] = biological target: T1, BCL-XL (Homo sapiens, UniProt Q07817); assay: Inhibition evaluated by measuring dissociation constant (Kd); type: binding
T1 construct: Recombinant full length BCL-XL was produced; poly-His (N); made in house; host or cells: E. coli BL21
T1 sequence (Q07817 whole entry, species assumed): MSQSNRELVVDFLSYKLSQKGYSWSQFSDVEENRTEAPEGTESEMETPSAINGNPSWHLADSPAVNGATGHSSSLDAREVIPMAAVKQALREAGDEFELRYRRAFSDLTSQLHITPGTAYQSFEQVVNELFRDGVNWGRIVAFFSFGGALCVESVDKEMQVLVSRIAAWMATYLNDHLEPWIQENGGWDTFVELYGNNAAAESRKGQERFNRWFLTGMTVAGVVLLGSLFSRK
Protocol: (§1) Predicted binding mode of some compounds of the present invention to a BCL-2 protein is illustrated by FIG. 1 (binding of compound 11 shown below), FIG. 2A (binding of compound 1 shown above), and FIG. 2B (binding of compound 2 shown above). […] FIG. 4 and FIG. 5 show such NMR data for compounds 6 and 7 shown above. The inhibition was also evaluated by measuring dissociation constant (Kd) values for some compounds of the invention.

B6BCL-2 transgenic mouse = assay: In vivo test in the B6BCL-2 transgenic mouse; settings: for In vivo activity compared with known compounds / Order of potency in terms of in vivo efficacy: B6BCL-2 transgenic mouse; for Order of potency in terms of in vivo efficacy / Order of severity of toxic effect: rank order; for Order of severity of toxic effect: diminishing severity
Protocol: Some compounds of the invention were also tested in vivo in the B6BCL-2 transgenic mouse. […] Gossypol is described, e.g., in U.S. Pat. No. 7,186,708. Apogossypol is described, e.g., in Meyers A. I.; Willemsen J. J., Tetrahedron Letters, vol. 37, No. 6, February, […], pp. 791-792.

BCL-XL [2] = biological target: T1, BCL-XL; assay: NMR spectroscopy binding test (1D 1H / 2D [15N,1H]-HSQC); settings: NMR data, FIGS. 3-5; negative control
Protocol: as §1
For all NMR experiments, BCL-xL was exchanged into 50 mM phosphate buffer at pH 7.5 and measurements were performed at 30° C. 2D [^15N,^1H]-HSQC spectra for BCL-xL were measured with 0.5 mM samples of ^15N-labeled protein. All experiments were performed with a 600 MHz Bruker Avance spectrometer, both equipped with either a TXI probe or a TCI cryoprobe. In all experiments, dephasing of residual water signals was obtained with a WATERGATE sequence. In order to test the ability of test compounds to bind to Bcl-xL, a 25 μM sample of the protein was prepared and 1D ^1H NMR spectra were collected in absence and presence of test compounds. By observing the aliphatic region of the spectra, binding can be readily detected in these simple experiments due to chemical shift changes in active site methyl groups of Ile, Leu, Thr, Val or Ala (region between 0.8 and 0.3 ppm).

Triplet B6Bcl2 mice = assay: Delivery of Epalrestat in vivo, spleen weight in Triplet B6Bcl2 mice
Protocol: Epalrestat (compound 11) was given to Triplet B6Bcl2 mice at a daily dose of 0.12 mmol/kg for 3 days (i.e., QDX3) through oral gavage. […] Both Epalrestat and the negative control were dissolved in PBS.
After 3 days, the spleens of the animals were removed.

Kd (BCL-XL [1])	Compound	In vivo activity compared with known compounds (B6BCL-2 transgenic mouse)	Order of potency in terms of in vivo efficacy (B6BCL-2 transgenic mouse)	Order of severity of toxic effect (B6BCL-2 transgenic mouse)	also measured
5.7 µM	CC(=C\c1ccccc1)/C=C1/SC(=S)N(C(C(=O)O)C(C)C)C1=O (stereo not shown) [Compound 2, 3-methyl-2-[5-(2-methyl-3-phenylallylidene)-4-oxo-2-thioxothiazolidin-3-yl]butanoic acid]				
10.6 µM	CC(C)C(C(=O)O)N1C(=O)C(=CC=Cc2ccccc2)SC1=S (stereo not shown) [Compound 9, 3-methyl-2-[4-oxo-5-(3-phenylallylidene)-2-thioxothiazolidin-3-yl]butanoic acid]				

Further lines, the compound ahead of its results:

Compound	Kd (BCL-XL [1])	In vivo activity compared with known compounds (B6BCL-2 transgenic mouse)	Order of potency in terms of in vivo efficacy (B6BCL-2 transgenic mouse)	Order of severity of toxic effect (B6BCL-2 transgenic mouse)	also measured
CC(=C\c1ccccc1)/C=C1/SC(=S)N(C(C(=O)O)c2ccccc2)C1=O (stereo not shown) [Compound 1, 2-[5-(2-methyl-3-phenylallylidene)-4-oxo-2-thioxothiazolidin-3-yl]-2-phenylacetic acid]	1 µM				
COc1cc2cc(C=C3SC(=S)N(C(C(=O)O)C(C)C)C3=O)c(C)cc2c(C(C)C)c1OC (stereo not shown) [Compound 3, 2-[5-(1-isopropyl-2,3-dimethoxy-7-methylnaphthalen-6-yl-methylene)-4-oxo-2-thioxothiazolidin-3-yl]-3-methylbutanoic acid]		equal to, or better than, known compounds gossypol and apogossypol	compound 11>compound 5>compound 3=apogossypol=gossypol	gossypol>>>apogossypol>compound 5=compound 3=compound 11	
COc1cc2c(cc1OC)C(Br)=C(C=C1SC(=S)N(C(C(=O)O)C(C)C)C1=O)CC2 (stereo not shown) [Compound 5, 2-[5-((4-bromo-1,2-dihydro-6,7-dimethoxynaphthalen-3-yl)methylene)-4-oxo-2-thioxothiazolidin-3-yl]-3-methylbutanoic acid]		equal to, or better than, known compounds gossypol and apogossypol	compound 11>compound 5>compound 3=apogossypol=gossypol	gossypol>>>apogossypol>compound 5=compound 3=compound 11	
CC(C)C(C(=O)O)N1C(=O)C(=CC2=C(Br)c3cc(O)c(O)cc3CC2)SC1=S (stereo not shown) [Compound 6, 2-[5-((4-bromo-1,2-dihydro-6,7-dihydroxynaphthalen-3-yl)methylene)-4-oxo-2-thioxothiazolidin-3-yl]-3-methylbutanoic acid]					Binding to BCL-XL by NMR (BCL-XL [2]): binding had occurred
COc1c(C=C2SC(=S)N(C(C(=O)O)C(C)C)C2=O)cc2ccccc2c1OC (stereo not shown) [Compound 7, 2-[5-((1,2-dimethoxynaphthalen-3-yl)methylene)-4-oxo-2-thioxothiazolidin-3-yl]-3-methylbutanoic acid]					Binding to BCL-XL by NMR (BCL-XL [2]): binding had occurred
CC(C(=O)O)N1C(=O)C(=CC=Cc2ccccc2)SC1=S (stereo not shown) [Compound 10, 2-[4-oxo-5-(3-phenylallylidene)-2-thioxothiazolidin-3-yl]propanoic acid]	34.4 µM				
CC(=Cc1ccccc1)C=C1SC(=S)N(CC(=O)O)C1=O [Compound 11, 2-[5-(2-methyl-3-phenylallylidene)-4-oxo-2-thioxothiazolidin-3-yl]acetic acid]	11.8 µM	equal to, or better than, known compounds gossypol and apogossypol	compound 11>compound 5>compound 3=apogossypol=gossypol	gossypol>>>apogossypol>compound 5=compound 3=compound 11	Shrinkage of spleen (Triplet B6Bcl2 mice; dosed orally or intraperitoneally): induced shrinkage of spleen whether dosed orally or intraperitoneally; Weight loss or signs of toxicity via physical exam (Triplet B6Bcl2 mice; intraperitoneal and oral routes, listed as Epalrestat): no weight loss or signs of toxicity via physical exam; also recorded: qualitatively safer than ApoG; Spleen Weight (Triplet B6Bcl2 mice; oral gavage, 0.12 mmol/kg daily for 3 days (QDX3), in PBS, spleens removed after 3 days): 193.9 mg; % spleen shrinkage, intraperitoneal versus oral dosing (Triplet B6Bcl2 mice; route comparison): Intraperitoneal injection induced more % shrinkage than oral dosing; Binding to BCL-XL by NMR (BCL-XL [2]): binding had occurred
Cc1cc2c(C(C)C)c(O)c(O)cc2c(O)c1-c1c(C)cc2c(C(C)C)c(O)c(O)cc2c1O [apogossypol]			compound 11>compound 5>compound 3=apogossypol=gossypol	gossypol>>>apogossypol>compound 5=compound 3=compound 11	
Cc1cc2c(C(C)C)c(O)c(O)c(C=O)c2c(O)c1-c1c(C)cc2c(C(C)C)c(O)c(O)c(C=O)c2c1O [gossypol]				gossypol>>>apogossypol>compound 5=compound 3=compound 11	
apogossypolone		not effective at all			
